From patent US20240091365A1, “BETA-GLUCURONIDE LINKER-PAYLOADS, PROTEIN CONJUGATES THEREOF, AND METHODS THEREOF” (priority 2022, published 2024) come the findings set out here.

Data set [1] has as its system A549 cells. Put plainly: In vitro cell killing (cell proliferation assay, Cell Titer-Glo) on FolRα negative A549 cells. The format is cell-based. Conditions: for cell killing (in words): A549 cells (hFolRα negative). The source says:
(§1) Anti-FolRα antibody conjugated to hemiasterlin with a cathepsin cleavable ValCit linker was used as control. FolRα negative A549 and MC38 cells were purchased from ATCC (American Type Culture Collection, Manassas, VA, USA), and FolRα positive Igrov1 cells were licensed from NCI (National Cancer Institute at Frederick, Maryland). MC38-hFolRα cells were generated at Sutro by stable transfection of a vector expressing human FolRa. All the cell lines were maintained in DMEM:F12 (1:1), high glucose (Corning, Corning, NY) supplemented with 10% heat-inactivated fetal bovine serum (Thermo Scientific, Grand Island, NY), 2 mM glutamax (Thermo Scientific, Grand Island, NY), and 1× Penicillin/Streptomycin (Corning, Corning, NY). Cytotoxicity effects of the ADCs were measured with a cell proliferation assay. A total of 625 cells for Igrov1 and A549, and 312 cells for MC38-hFolRα in a volume of 25 microliters were seeded in a 384-well flat bottom white polystyrene plate the day before the actual assay starts. ADCs were formulated at 2× starting concentration in cell culture medium and filtered through MultiScreen HTS 96-Well Filter Plates (Millipore, Billerica, Massachusetts). Filter sterilized samples were serial diluted (1:3) under sterile conditions and added onto cells in triplicate. Plates were cultured at 37° C. in a CO2 incubator for 120 hours for Igrov1 and A549, and 72 hours for MC38-hFolRα cells. For cell viability measurement, 30 microliters of Cell Titer-Glo® reagent (Promega Corp, Madison, WI) was added into each well, and plates were processed as per product instructions. Relative luminescence was measured on an ENVISION® plate reader (Perkin-Elmer; Waltham, MA). Relative luminescence readings were converted to % viability using untreated cells as controls. Data was fitted with non-linear regression analysis using log (inhibitor) vs. response, variable slope, and 4-parameter fit equation using GraphPad Prism.
(In general: ATP-based viability assays read luminescence as a measure of living cells.)

In data set [2] the test system is Igrov1 cells. Nature of the data set: In vitro cell killing (cell proliferation assay, Cell Titer-Glo) on FolRα positive Igrov1 cells. The format is cell-based. The following applies: for cell killing (in words): Igrov1 cells (FolRα positive).
Description: as §1

The subject of data set [3] is MC38-hFolRα cells. Put plainly: In vitro cell killing (cell proliferation assay, Cell Titer-Glo) on MC38-hFolRα cells. Type of data set: cell-based. Conditions: for cell killing (in words): MC38-hFolRα cells (FolRα positive).
Description: as §1

Data set [4] addresses E. coli β-Glucuronidase (Escherichia coli, UniProt P05804). Nature of the data set: β-Glucuronidase reactivity: enzymatic cleavage of linker-payloads monitored by LCMS. Type of data set: in vitro ADME. The following applies: 10 μM linker-payload, 300 U/mL enzyme, 50 mM sodium acetate, 37° C., release of (207) from (107), (201) from (108). As for the experimental part: The susceptibility of the β-glucuronide linker-payloads to enzymatic cleavage was evaluated by treatment of the (107) and (108) linker-payloads with β-glucuronidase, as shown in FIG. 3A-FIG. 3D. This assay allowed the confirmation of the expected release of Exatecan (207) and 3-amino hemiasterlin (201). The cleavage product was monitored using LCMS. 945 μL of 50 mM sodium acetate, 5 μL of 2 mM (107)/(108) linker-payloads stock (final conc.10 μM) and 50 μL of 6 KU/mL E. coli β-Glucuronidase in 0.2% NaCl (final conc.300 U/mL) were mixed and incubated at 37° C. Aliquots (50 μL) were taken at t=0 h, 0.5 h, 1 h, 2 h, 4 h and 24 h, treated with 3 volumes of quench solution (methanol:acetonitrile 5:95 v/v) and analyzed by LCMS.

Read-outs that look alike come from different tables or passages of the source.

E. coli β-Glucuronidase, sequence (P05804 whole entry): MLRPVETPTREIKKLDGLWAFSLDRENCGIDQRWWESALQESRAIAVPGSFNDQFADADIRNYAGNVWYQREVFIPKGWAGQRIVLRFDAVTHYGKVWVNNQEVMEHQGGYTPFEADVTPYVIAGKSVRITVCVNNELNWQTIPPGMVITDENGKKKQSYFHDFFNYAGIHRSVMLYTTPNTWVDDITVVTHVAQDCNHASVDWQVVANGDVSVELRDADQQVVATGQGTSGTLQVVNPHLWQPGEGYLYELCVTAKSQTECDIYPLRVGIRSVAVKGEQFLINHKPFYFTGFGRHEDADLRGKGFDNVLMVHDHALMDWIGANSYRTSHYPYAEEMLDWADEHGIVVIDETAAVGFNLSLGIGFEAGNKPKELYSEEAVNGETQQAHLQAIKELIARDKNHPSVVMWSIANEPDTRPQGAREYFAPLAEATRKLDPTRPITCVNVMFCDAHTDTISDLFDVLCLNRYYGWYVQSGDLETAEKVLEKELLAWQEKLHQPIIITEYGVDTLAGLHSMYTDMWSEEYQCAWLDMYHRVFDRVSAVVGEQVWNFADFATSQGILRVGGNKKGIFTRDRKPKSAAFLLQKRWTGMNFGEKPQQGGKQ

Consider 3-amino hemiasterlin [Compound 201], for which the “cell killing (in words)” value in data set [1], in data set [2] and in data set [3] was “good cell killing” each time. The Span in data set [1] (A549 cells, 120 hours) is 83%; in data set [2] (Igrov1 cells, 120 hours) it was 88%; in data set [3] (MC38-FolRa cells, 72 hours), 82%. Besides, the EC50 – broadly, the concentration needed to bring the measured effect to its halfway point – in data set [1] (A549 cells, 120 hours, read-out: EC50) worked out at 13 nM; in data set [2] (Igrov1 cells, 120 hours, read-out: EC50), 0.96 nM; in data set [3] (MC38-FolRa cells, 72 hours, read-out: EC50), 5.5 nM.

For the compound `CC[C@@]1(O)C(=O)OCc2c1cc1n(c2=O)Cc2c-1nc1cc(F)c(C)c3c1c2[C@@H](NC(=O)OCc1ccc(O[C@@H]2O[C@H](C(=O)O)[C@@H](O)[C@H](O)[C@H]2O)c(CNC(=O)CCNC(=O)[C@H](CNC(=O)CCOCCOCCOCCOCCOCCOCCOCCOCCOCCOCCOCCOC)NC(=O)CCCCC(=O)N2Cc4ccccc4C#Cc4ccccc42)c1)CC3` [Compound 107, DBCO β-Glucuronide-PEG12-Exatecan], the “linker-payload after 30 min with β-glucuronidase (in words)” value in data set [4] is “most of the (107) and (108) in the reaction mixture had disappeared”.

For the compound `CN[C@H](C(=O)N[C@H](C(=O)N(C)[C@H](/C=C(\C)C(=O)O)C(C)C)C(C)(C)C)C(C)(C)c1cccc(NC(=O)OCc2ccc(O[C@@H]3O[C@H](C(=O)O)[C@@H](O)[C@H](O)[C@H]3O)c(CNC(=O)CCNC(=O)[C@H](CNC(=O)CCOCCOCCOCCOCCOCCOCCOCCOCCOCCOCCOCCOC)NC(=O)CCCCC(=O)N3Cc4ccccc4C#Cc4ccccc43)c2)c1` [Compound 108], in data set [4], the “linker-payload after 30 min with β-glucuronidase (in words)” value was “most of the (107) and (108) in the reaction mixture had disappeared”.

Regarding `CC[C@@]1(O)C(=O)OCc2c1cc1n(c2=O)Cc2c-1nc1cc(F)c(C)c3c1c2[C@@H](N)CC3` [Compound 207, Exatecan], the “cell killing (in words)” value in data set [1], in data set [2] and in data set [3] was “good cell killing” throughout. Also, the Span turned out to be 99% in data set [1] (A549 cells, 120 hours); 91% in data set [2] (Igrov1 cells, 120 hours); 95% in data set [3] (MC38-FolRa cells, 72 hours). The EC50 amounted to 3.4 nM in data set [1] (Homo sapiens, A549, 120 h); 0.27 nM in data set [2] (Homo sapiens, IGROV-1, 120 h); 2.3 nM in data set [3] (72 h). The “potency relative to free Hemiasterlin (201)” value in data set [2] (free payloads, statement for the three cell lines tested (Igrov1, MC38-hFolRα, A549)) is “about 3 fold”.
